Assay [1] in a line: Sub-therapeutic antibiotic treatment (STAT) in drinking water: growth and body composition by weighing, DEXA and MRI. The format is in vivo, C57BL6/J mice. The conditions noted are these: vs control. Here is the method: Low dose penicillin (6.67 mg/L) was administered in the drinking water of C57BL6/J mice either at birth (day 0, antibiotics initially received through maternal milk) or at weaning (day 28); control mice received no antibiotics. All mice were given ad libitum access to food and water, and mice were fed either standard chow (13.5% kcal from fat) or high fat diet (45% kcal from fat). Mice were weighed daily and body composition was analyzed by dual energy x-ray absorptiometry (DEXA) and magnetic resonance imaging (MRI.)
C57B6 breeder mice (F0) were obtained at 6 weeks of age from Jackson Laboratory. One male was mated with 2 females to create the F1 generation. Males and females were separated after pregnancy was detected. On day 14 of pregnancy, STAT breeder females were exposed to penicillin so that their offspring would be exposed to antibiotics from birth; control breeders had no antibiotic exposure. From the F1 generation, penicillin-treated and control mice at or near the median weight of their group were selected at 12 weeks of age to become breeders, and to produce the F2 generation. Breeder mice and offspring were maintained on their current treatment (either control or penicillin). […]
The litters were monitored closely and the following information was collected: mating pairs, date of birth, litter number, number born, number weaned, animal number, gender, and generation number. […]
Mice were anesthetized using isofluorane. Total body mass, lean mass, fat mass, body fat percentage, and bone mineral density were measured using the Lunar PIXImus densitometer. […]
Mice were anaesthetized with isofluorane. Body temperature and breathing rate were continuously monitored throughout the scan, and body temperature was maintained by flowing warm air through the coil. […] Total body fat percentage was calculated by merging the two images to generate a fat fraction image. […] The fat volume was calculated by multiplying total volume of the VOI by the mean fat %. To determine liver adiposity, 5 consecutive slices of the liver were traced to generate a liver VOI, and the average percent fat was recorded. […]

The subject of assay [2] is butyryl coA transferase (BCoAT) gene. Put plainly: Degenerate quantitative PCR for BCoAT on fecal specimens. The format is in vivo, mice. Here is the method:
(§1) Quantitative PCR assays to assess for taxa of interest were performed on a Rotor Gene 3000 quantitative PCR cycler using the LightCycler FastStart DNA Master PLUS SYBR Green I kit (Roche, Indianapolis Ind.) according to the manufacturer's instructions. Quantitative assays to assess total microbial census were performed for Bacteria using 16S rRNA and Fungi using ITS sequences. Quantitative assays were also performed for butyryl CoA transferase (BCoAT) and formyltetrahydrofolate synthetase (FTHFS). Values were normalized using total Bacterial 16S copies prior to analyses.
(§2) Because of the central role of short-chain fatty acid synthesis in colonic metabolism (Wong et al., J Clin Gastroenterol 40, 235-243 (2006)), the effect of STAT exposure on the prokaryotic genes butyryl coA transferase (BCoAT) and formyltetrahydrofolate synthetase (FTHFS) that play roles in butyrate and acetate synthesis was examined Degenerate quantitative PCRs for BCoAT and FTHFS (primers listed in Table 1) were performed on fecal specimens in STAT (penicillin) and control mice. […] These findings provide evidence that STAT exposure perturbs not only GI microbiome, composition but also abundance of genes critical to host energy homeostasis.

For assay [3], the system named is formyltetrahydrofolate synthetase (FTHFS) gene. Put plainly: Degenerate quantitative PCR for FTHFS on fecal specimens. The format is in vivo, mice. The conditions noted are these: vs control. Here is the method: as §1, §2
A further assay relates to liver gene expression. Put plainly: Hepatic gene expression profiling by microarray. The format is in vivo, mice. An excerpt:
(§3) Total DNA and total RNA was extracted from the mouse liver by the Wizard® Genomic DNA purification Kit (Promega) and RNeasy Mini Kit (Qiagen), respectively, according to the manufacturers instructions. Total RNA was reverse transcribed to cDNA using the Verso™ cDNA Synthesis Kit (Thermo Scientific). To generate standards for each target gene expression analysis, the DNA or cDNA region of interest was PCR-amplified and the PCR product was cloned using the pGEM-Teasy vector system (Promega). qPCR was performed with a LightCycler 480 SYBR Green I Master (Roche) and run in a LightCycler 480 system (Roche). Target mRNA was normalized to GAPDH mRNA as an internal control in each sample.
Expression profiling of the STAT and control animal groups (n=6 each) was performed using the Affymetrix Genechip system (Affymetrix, Santa Clara, Calif.). Total RNA quality and quantity were determined using the Agilent 2100 Bioanalyzer and Nanodrop ND-1000. Total RNA (100 ng) was used to prepare cDNA following the Affymetrix 3′IVT Express Kit labeling protocol (Affymetrix). Standardized array processing procedures recommended by Affymetrix were performed, including hybridization, fluidics processing and scanning of the Affymetrix MG-430 2.0 arrays. GeneSpring GX11 software (Agilent Technologies, Santa Clara, Calif.) was used to normalize the raw data (Affymetrix CEL files) by Robust Multichip Average algorithm (RMA).

The next assay relates to PPARγ. Nature of the assay: Hepatic qPCR normalized to GAPDH. The format is in vivo, mice. The conditions noted are these: liver qPCR, vs control.
Description: as §3
A general note: Quantitative PCR measures a nucleic acid by following its amplification.

Another assay deals with SREBP1c. Put plainly: Hepatic qPCR normalized to GAPDH. In kind it is in vivo, mice. The following applies: liver, vs control; same direction as microarrays.
Description: as §3

For assay [4], the system named is fatty acid translocase (FAT, CD36). Put plainly: Hepatic qPCR normalized to GAPDH. The format is in vivo, mice. The following applies: liver qPCR, vs control.
Description: as §3

For assay [5], the system named is insulin receptor substrate 2 (IRS-2). Put plainly: Hepatic qPCR normalized to GAPDH. In kind it is in vivo, mice. The conditions noted are these: liver, vs control; same direction as microarrays.
Description: as §3

1 substance from patent publication US8951512B2, “Methods for treating bone disorders by characterizing and restoring mammalian bacterial microbiota” (New York University, priority 2010, dated 2015) can be followed below.

Consider penicillin, for which the “Weight at 21 days” value in assay [1] (F1 generation, female mice) is reported as “significantly decreased”; in assay [1] (F1 generation, sex not given), “no difference”; in assay [1] (F2 generation, both females and males), “significantly increased”. For the same substance, the BCoAT gene copies is recorded as 193±22 normalized copies in assay [2] (at 3 weeks) and “normalized” in assay [2] (by 7 weeks, vs control). Also, the FTHFS gene copies entry in assay [3] (at 3 weeks) is given as “no significant differences”; in assay [3] (by 7 weeks) it was “significantly higher”. The “Genes significantly up- or down-regulated by t-test or PTM” value in the assay with liver gene expression (>45,000 genes surveyed, vs control) is on record as 466 genes. Besides, the “Genes significantly differed from controls by both tests” value in the assay on liver gene expression (t-test and PTM) is recorded as 397 genes. Besides, the “Genes differentially expressed, fatty acid metabolism pathways” value in the assay with liver gene expression (vs control) came to 22 genes. Besides, the “Genes differentially expressed, lipid metabolic processes” value with liver gene expression (vs control) was 47 genes. In addition, in the assay on PPARγ, the “PPARγ normalized gene counts” value is given as “significantly higher”. The “SREBP1c qPCR result” value in the assay on SREBP1c is given as “not statistically significant”. In addition, the “FAT normalized gene counts” value in assay [4] is recorded as “significantly higher”. Moreover, the “IRS-2 qPCR result” value in assay [5] is reported as “not statistically significant”.
